Data as given in patent US20260191838A1, “COMBINATIONS COMPRISING A MENIN-MLL INHIBITOR AND A BCL-2 INHIBITOR” (JANSSEN PHARMACEUTICA NV, priority 2022, published 2026).

Key:
MV4-11 cells = test: In vitro proliferation (Cell Titer Glo), Compound 51 with decitabine and venetoclax, MV4-11; assay type: cell-based, human; parameters: key to Synergy/antagonism call (maxR test): no asterisk: absence of any asterisk indicates an additive effect; antagonism is indicated by “*”; synergy is indicated by “**”; Effect size (BIGL, HSA null model): scale not given here
Experimental: (§1) 3a) In Vitro Proliferation—Menin-MLL Inhibitor in Combination with a DNA Hypomethylating Agent (Decitabine) and a BCL2 Inhibitor (Venetoclax)
(§2) The effect of Compound 51 in combination with decitabine and venetoclax was determined in proliferation assays.
(§3) AML cell lines MOLM-13, OCI-AML3 and MV4-11 were purchased from DSMZ. MOLM-13 were grown in RPMI medium supplemented with 10% Fetal Bovine Serum (FBS) and 1% penicillin/streptomycin. MV4-11 cells were grown in IMDM medium supplemented with 10% FBS and 1% penicillin/streptomycin. OCI-AML3 cells were cultured in 80-90% alpha-MEM (without ribo- and deoxyribonucleosides)+10-20% FBS. All cell lines were cultured at 37° C. in 5% CO2 atmosphere.
(§4) AML cell lines (10×10^3 cells/well) were seeded in 96-well plates and grown for 6 days in serum (10%)-containing medium in the presence or absence of inhibitors at the indicated concentrations. Proliferation was analyzed by means of a Cell Titer Glo assay using the CellTiter 96 Aqueous One Solution Cell Proliferation Assay (Promega, Madison, WI, USA), according to the manufacturer's instructions. Data are mean with standard deviation from two to four independent experiments in technical triplicates.
(§5) R-based Biochemically Intuitive Generalized Loewe (BIGL) model implemented with a highest single agent (HSA) null model. Specifically, the BIGL methodology was applied to calculate drug-drug interactions (Van der Borght, K., Tourny, A., Bagdziunas, R. et al. BIGL: Biochemically Intuitive Generalized Loewe null model for prediction of the expected combined effect compatible with partial agonism and antagonism. Sci Rep 7, 17935 (2017); Thas, O., Tourny, A., Verbist, B., Hawinkel, S., Nazarov, M., Mutambanengwe, K., & Bijnens, L. Statistical detection of synergy: new methods and a comparative study. Pharmaceutical Statistics (2021)).
(§6) Synergy matrix results of the BIGL analysis of the cell line data with HSA as mean model calculated on the basis of the cellular metabolic activity using Cell Titer-Glo assay. Bootstrap confidence intervals are indicated. Effect sizes and their confidence intervals are shown. […] No significant average effect if zero is included in the interval.

OCI-AML3 cells = test: In vitro proliferation (Cell Titer Glo), Compound 51 with decitabine and venetoclax, OCI-AML3; assay type: cell-based, human; parameters: Effect size (BIGL, HSA null model): scale not given here
Experimental: as §1, §2, §3, §4, §5, §6

[1] = Compound 51 0.05 μM, Decitabine 0.15 μM, Venetoclax 0.002 μM
[2] = Compound 51 0.05 μM, Decitabine 1.5 μM, Venetoclax 0.02 μM
[3] = Compound 51 0.05 μM, Decitabine 3 μM, Venetoclax 0.2 μM
[4] = Compound 51 0.1 μM, Decitabine 0.0015 μM, Venetoclax 0.0001 μM
[5] = Compound 51 0.1 μM, Decitabine 0.015 μM, Venetoclax 0.001 μM
[6] = Compound 51 0.1 μM, Decitabine 0.15 μM, Venetoclax 0.002 μM
[7] = Compound 51 0.1 μM, Decitabine 1.5 μM, Venetoclax 0.02 μM
[8] = Compound 51 0.1 μM, Decitabine 3 μM, Venetoclax 0.2 μM
[9] = Compound 51 0.5 μM, Decitabine 0.0015 μM, Venetoclax 0.0001 μM
[10] = Compound 51 0.5 μM, Decitabine 0.015 μM, Venetoclax 0.001 μM
[11] = Compound 51 0.5 μM, Decitabine 0.15 μM, Venetoclax 0.002 μM
[12] = Compound 51 0.5 μM, Decitabine 1.5 μM, Venetoclax 0.02 μM
[13] = Compound 51 0.5 μM, Decitabine 3 μM, Venetoclax 0.2 μM
[14] = Compound 51 1 μM, Decitabine 0.0015 μM, Venetoclax 0.0001 μM
[15] = Compound 51 1 μM, Decitabine 0.015 μM, Venetoclax 0.001 μM
[16] = Compound 51 1 μM, Decitabine 0.15 μM, Venetoclax 0.002 μM
[17] = Compound 51 1 μM, Decitabine 1.5 μM, Venetoclax 0.02 μM
[18] = Compound 51 1 μM, Decitabine 3 μM, Venetoclax 0.2 μM

## CC(=O)N1CCC(CN2CC[C@@H](Cc3cn(-c4ccc(F)cc4C(=O)N(C)C(C)C)c4cncc(C)c34)C2)CC1 [Compound 51]
MV4-11 cells; [1]
  Effect size (BIGL, HSA null model): −0.24
  Synergy/antagonism call (maxR test): **
MV4-11 cells; [2]
  Effect size (BIGL, HSA null model): −0.1
  Synergy/antagonism call (maxR test): **
MV4-11 cells; [3]
  Effect size (BIGL, HSA null model): −0.06
MV4-11 cells; [4]
  Effect size (BIGL, HSA null model): 0.03
MV4-11 cells; [5]
  Effect size (BIGL, HSA null model): −0.06
MV4-11 cells; [6]
  Effect size (BIGL, HSA null model): −0.09
  Synergy/antagonism call (maxR test): **
MV4-11 cells; [7]
  Effect size (BIGL, HSA null model): −0.3
  Synergy/antagonism call (maxR test): **
MV4-11 cells; [8]
  Effect size (BIGL, HSA null model): −0.06
MV4-11 cells; [9]
  Effect size (BIGL, HSA null model): 0
MV4-11 cells; [10]
  Effect size (BIGL, HSA null model): −0.02
MV4-11 cells; [11]
  Effect size (BIGL, HSA null model): −0.02
MV4-11 cells; [12]
  Effect size (BIGL, HSA null model): −0.03
MV4-11 cells; [13]
  Effect size (BIGL, HSA null model): −0.03
MV4-11 cells; [14]
  Effect size (BIGL, HSA null model): −0.03
MV4-11 cells; [15]
  Effect size (BIGL, HSA null model): −0.02
MV4-11 cells; [16]
  Effect size (BIGL, HSA null model): −0.02
MV4-11 cells; [17]
  Effect size (BIGL, HSA null model): −0.03
MV4-11 cells; [18]
  Effect size (BIGL, HSA null model): −0.08
MV4-11 cells; pairwise matrix of decitabine and Compound 51 in the presence of Venetoclax, MV4-11, 6-day CellTiter-Glo
  combination effect on proliferation (in words): synergistically cytotoxic
OCI-AML3 cells; Compound 51 0.001 μM, Decitabine 0.0015 μM, Venetoclax 0.0001 μM
  Effect size (BIGL, HSA null model): −0.03
OCI-AML3 cells; Compound 51 0.001 μM, Decitabine 0.015 μM, Venetoclax 0.001 μM
  Effect size (BIGL, HSA null model): −0.1
OCI-AML3 cells; Compound 51 0.001 μM, Decitabine 0.15 μM, Venetoclax 0.002 μM
  Effect size (BIGL, HSA null model): −0.05
OCI-AML3 cells; Compound 51 0.001 μM, Decitabine 1.5 μM, Venetoclax 0.02 μM
  Effect size (BIGL, HSA null model): 0
OCI-AML3 cells; Compound 51 0.001 μM, Decitabine 3 μM, Venetoclax 0.2 μM
  Effect size (BIGL, HSA null model): 0
OCI-AML3 cells; Compound 51 0.01 μM, Decitabine 0.0015 μM, Venetoclax 0.0001 μM
  Effect size (BIGL, HSA null model): −0.01
OCI-AML3 cells; Compound 51 0.01 μM, Decitabine 0.015 μM, Venetoclax 0.001 μM
  Effect size (BIGL, HSA null model): −0.31
OCI-AML3 cells; Compound 51 0.01 μM, Decitabine 0.15 μM, Venetoclax 0.002 μM
  Effect size (BIGL, HSA null model): −0.06
OCI-AML3 cells; Compound 51 0.01 μM, Decitabine 1.5 μM, Venetoclax 0.02 μM
  Effect size (BIGL, HSA null model): −0.01
OCI-AML3 cells; Compound 51 0.01 μM, Decitabine 3 μM, Venetoclax 0.2 μM
  Effect size (BIGL, HSA null model): 0
OCI-AML3 cells; Compound 51 0.05 μM, Decitabine 0.0015 μM, Venetoclax 0.0001 μM
  Effect size (BIGL, HSA null model): 0.02
OCI-AML3 cells; Compound 51 0.05 μM, Decitabine 0.015 μM, Venetoclax 0.001 μM
  Effect size (BIGL, HSA null model): 0.01
OCI-AML3 cells; [1]
  Effect size (BIGL, HSA null model): −0.09
OCI-AML3 cells; [2]
  Effect size (BIGL, HSA null model): −0.01
OCI-AML3 cells; [3]
  Effect size (BIGL, HSA null model): 0
OCI-AML3 cells; [4]
  Effect size (BIGL, HSA null model): 0.03
OCI-AML3 cells; [5]
  Effect size (BIGL, HSA null model): 0.09
OCI-AML3 cells; [6]
  Effect size (BIGL, HSA null model): −0.06
OCI-AML3 cells; [7]
  Effect size (BIGL, HSA null model): −0.01
OCI-AML3 cells; [8]
  Effect size (BIGL, HSA null model): 0
OCI-AML3 cells; [9]
  Effect size (BIGL, HSA null model): 0.03
OCI-AML3 cells; [10]
  Effect size (BIGL, HSA null model): 0.12
OCI-AML3 cells; [11]
  Effect size (BIGL, HSA null model): 0.01
OCI-AML3 cells; [12]
  Effect size (BIGL, HSA null model): −0.01
OCI-AML3 cells; [13]
  Effect size (BIGL, HSA null model): 0
OCI-AML3 cells; [14]
  Effect size (BIGL, HSA null model): 0.02
OCI-AML3 cells; [15]
  Effect size (BIGL, HSA null model): 0.11
OCI-AML3 cells; [16]
  Effect size (BIGL, HSA null model): 0
OCI-AML3 cells; [17]
  Effect size (BIGL, HSA null model): 0
OCI-AML3 cells; [18]
  Effect size (BIGL, HSA null model): 0.03
OCI-AML3 cells; Compound 51 with Decitabine in the presence of Venetoclax, OCI-AML3 (NPM1c), 6-day CellTiter-Glo
  combination effect on proliferation (in words): not antagonistically cytotoxic
